Where two headings read alike, the source gives them in different places.

Assay [1] addresses T1, AHR (Homo sapiens, UniProt P35869).
T1 construct: U87 MG glioblastoma cells (ATCC #HTB-14) endogenously expressing AHR; endogenous in cells; host or cells: U87 MG glioblastoma cells (ATCC #HTB-14)
T1 sequence (P35869 11-848): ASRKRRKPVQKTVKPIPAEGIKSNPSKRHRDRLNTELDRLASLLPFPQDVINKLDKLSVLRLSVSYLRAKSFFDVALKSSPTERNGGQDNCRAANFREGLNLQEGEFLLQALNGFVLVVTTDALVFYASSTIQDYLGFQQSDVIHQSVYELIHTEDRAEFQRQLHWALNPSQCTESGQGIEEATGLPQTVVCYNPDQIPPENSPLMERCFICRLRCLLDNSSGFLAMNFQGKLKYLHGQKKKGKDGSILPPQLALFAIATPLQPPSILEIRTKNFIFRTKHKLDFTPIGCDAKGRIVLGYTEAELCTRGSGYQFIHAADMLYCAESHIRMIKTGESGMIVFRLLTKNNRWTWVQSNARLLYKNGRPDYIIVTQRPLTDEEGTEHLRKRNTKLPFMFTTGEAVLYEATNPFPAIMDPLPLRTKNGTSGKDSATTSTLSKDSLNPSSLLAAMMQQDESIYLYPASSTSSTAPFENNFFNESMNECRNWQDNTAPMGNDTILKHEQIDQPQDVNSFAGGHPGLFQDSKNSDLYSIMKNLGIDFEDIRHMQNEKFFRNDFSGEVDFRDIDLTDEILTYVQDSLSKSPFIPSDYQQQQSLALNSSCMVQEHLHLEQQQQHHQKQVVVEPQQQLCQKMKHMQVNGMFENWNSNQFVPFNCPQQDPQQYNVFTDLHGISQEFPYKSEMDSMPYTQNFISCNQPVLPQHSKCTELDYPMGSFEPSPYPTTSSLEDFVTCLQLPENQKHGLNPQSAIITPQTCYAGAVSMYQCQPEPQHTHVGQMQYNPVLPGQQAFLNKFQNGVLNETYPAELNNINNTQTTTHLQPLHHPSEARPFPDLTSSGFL
The assay can be described thus: In vitro assay 1: antagonism in human cell line (AHR transactivation, firefly luciferase reporter, kynurenic acid prestimulated). The format is cell-based. The settings on record: AHR Antagonism Human IC50 [M]. An outline of the steps: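 U87 MG + DRE-firefly/constitutive-Renilla stable reporters; kynurenic acid prestim; dual-luc read; Renilla = tox; normalized vs pos/neg controls (pos: 150 μM KYNA + 5 μM staurosporine).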
A general note: A reporter such as luciferase makes a cellular process visible.

Assay [2] concerns the target T2, AHR (Mus musculus, UniProt P30561).
T2 sequence (P30561 1-848 P471L/N533S/M589L): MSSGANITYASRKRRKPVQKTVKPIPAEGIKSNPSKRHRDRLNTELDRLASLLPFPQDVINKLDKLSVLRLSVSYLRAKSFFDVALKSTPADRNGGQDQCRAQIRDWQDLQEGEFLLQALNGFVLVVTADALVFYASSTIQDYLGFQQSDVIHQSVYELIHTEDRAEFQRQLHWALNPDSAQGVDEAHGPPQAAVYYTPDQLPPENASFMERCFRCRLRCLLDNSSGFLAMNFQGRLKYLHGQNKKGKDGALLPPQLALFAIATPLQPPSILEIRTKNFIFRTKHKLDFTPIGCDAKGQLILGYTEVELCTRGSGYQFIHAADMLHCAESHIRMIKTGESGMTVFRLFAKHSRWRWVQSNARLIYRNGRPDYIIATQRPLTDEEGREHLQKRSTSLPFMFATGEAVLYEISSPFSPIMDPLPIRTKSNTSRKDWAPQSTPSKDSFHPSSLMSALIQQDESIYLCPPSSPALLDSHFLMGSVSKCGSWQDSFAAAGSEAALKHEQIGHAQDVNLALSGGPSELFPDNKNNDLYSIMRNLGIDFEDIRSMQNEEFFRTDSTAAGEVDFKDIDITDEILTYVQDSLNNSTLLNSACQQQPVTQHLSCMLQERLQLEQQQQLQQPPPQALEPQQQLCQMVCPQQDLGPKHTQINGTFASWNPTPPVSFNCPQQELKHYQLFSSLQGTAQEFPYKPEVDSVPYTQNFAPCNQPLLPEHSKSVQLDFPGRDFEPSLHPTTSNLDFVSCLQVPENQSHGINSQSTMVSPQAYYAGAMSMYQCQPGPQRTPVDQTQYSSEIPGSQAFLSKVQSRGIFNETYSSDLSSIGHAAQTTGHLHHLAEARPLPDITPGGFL
Nature of the assay: In vitro assay 3: antagonism in mouse cell line (AHR transactivation, firefly luciferase reporter, kynurenic acid prestimulated). Type of assay: cell-based. An outline of the steps: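 Cells were first stimulated with kynurenic acid, then exposed to test compound, after which firefly luciferase from a DRE-containing AHR reporter was read out. Signal was scaled between positive and negative controls. Cells not given kynurenic acid provided the inhibition reference.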

Where [3] appears, read: Hepa 1c1c7 cells, 200 μM kynurenic acid, 20 hours, firefly luciferase reporter, read-out: AHR Antagonism Mouse IC50.
Where [4] appears, read: mouse Hepa 1c1c7 cells, 200 μM kynurenic acid, 20 hours, read-out: AHR Antagonism Mouse IC50.

In the case of `COc1ccc(-c2nc3c4cccc(Br)c4nc(N[C@H](C)C(=O)NCCN4CCN(C(=O)OC(C)(C)C)CC4)n3n2)cc1` [Example 890, tert-butyl 4-[2-({N-[7-bromo-2-(4-methoxyphenyl)[1,2,4]triazolo[1,5-c]quinazolin-5-yl]-D-alanyl}amino)ethyl]piperazine-1-carboxylate], the IC50 (commonly the concentration at which inhibition is half-maximal) is 4.05e-09 M at AHR [1] (firefly luciferase reporter) and 9.3 nM at AHR [2] (setting [3]).
Regarding `N#Cc1cccc2c1nc(N[C@@H]1CNCCNC1=O)n1nc(-c3cn[nH]c3)nc21` [Example 935, 5-{[(6R)-5-oxo-1,4-diazepan-6-yl]amino}-2-(1H-pyrazol-4-yl)[1,2,4]triazolo[1,5-c]quinazoline-7-carbonitrile], the figures for the IC50 against AHR [1] (firefly luciferase reporter) and on AHR [2] (setting [3]) were 4.72e-06 M and 1120 nM, respectively.
Consider `Cn1cc(-c2nc3c4ccccc4nc(N[C@@H]4CCCCNC4=O)n3n2)cn1` [Example 12, (3R)-3-{[2-(1-methyl-1H-pyrazol-4-yl)[1,2,4]triazolo[1,5-c]quinazolin-5-yl]amino}azepan-2-one], for which the values for the IC50 on AHR [1] and on AHR [2] (setting [4]) were 1.31e-08 M and 8.31 nM, respectively.
The like results for `O=C1NCCCC[C@H]1Nc1nc2ccccc2c2nc(-c3cccnc3F)nn12` [Example 640, (3R)-3-{[2-(2-fluoropyridin-3-yl)[1,2,4]triazolo[1,5-c]quinazolin-5-yl]amino}azepan-2-one] were, in that order, 2.54e-08 M and 30.7 nM.
The like results for `Cn1cc(-c2nc3c4cccc(C(F)(F)F)c4nc(N[C@@H]4COCCNC4=O)n3n2)cn1` [Example 732, (6R)-6-{[2-(1-methyl-1H-pyrazol-4-yl)-7-(trifluoromethyl)[1,2,4]triazolo[1,5-c]quinazolin-5-yl]amino}-1,4-oxazepan-5-one] were, in that order, 1.32e-09 M and 6.14 nM.
The like results for `COc1ccc(-c2nc3c4cccc(C(C)C)c4nc(N[C@@H]4CCCCNC4=O)n3n2)cc1` [Example 587, (3R)-3-{[2-(4-methoxyphenyl)-7-(propan-2-yl)[1,2,4]triazolo[1,5-c]quinazolin-5-yl]amino}azepan-2-one] were, in that order, 7.7e-09 M and 20.6 nM.
For the compound `Cn1cncc1-c1nc2c3ccccc3nc(N[C@@H]3CCCCNC3=O)n2n1` [Example 610, (3R)-3-{[2-(1-methyl-1H-imidazol-5-yl)[1,2,4]triazolo[1,5-c]quinazolin-5-yl]amino}azepan-2-one], the figures for the IC50 on AHR [1] and at AHR [2] (setting [4]) were 2.44e-07 M and 86.5 nM, respectively.
As for `O=C1NCCCC[C@H]1Nc1nc2ccccc2c2nc(-c3nc(C4CC4)no3)nn12` [Example 135, (3R)-3-{[2-(3-cyclopropyl-1,2,4-oxadiazol-5-yl)[1,2,4]triazolo[1,5-c]quinazolin-5-yl]amino}azepan-2-one], the IC50 was 2.77e-08 M against AHR [1] and 20.5 nM at AHR [2] (setting [4]).
With `O=C1NCCCC[C@H]1Nc1nc2ccccc2c2nc(-c3ccc(Cl)cc3OC(F)(F)F)nn12` [Example 517, (3R)-3-({2-[4-chloro-2-(trifluoromethoxy)phenyl][1,2,4]triazolo[1,5-c]quinazolin-5-yl}amino)azepan-2-one], the figures for the IC50 on AHR [1] and on AHR [2] (setting [4]) were 1.47e-09 M and 2.31 nM, respectively.
For the compound `N#Cc1ccc(-c2nc3c4ccccc4nc(N[C@@H]4CCCCNC4=O)n3n2)cc1` [Example 387, 4-(5-{[(3R)-2-oxoazepan-3-yl]amino}[1,2,4]triazolo[1,5-c]quinazolin-2-yl)benzonitrile], the values for the half-inhibitory concentration (IC50) against AHR [1] and at AHR [2] (setting [4]) were 7.93e-10 M and 0.398 nM, respectively.
Take `Cc1nn(C)cc1-c1nc2c3cccc(C(F)(F)F)c3nc(N[C@H]3CNCCNC3=O)n2n1` [Example 948]: the IC50 is 2.08e-08 M on AHR [1] (firefly luciferase reporter) and 49.6 nM at AHR [2] (setting [3]).
With `Cc1nn(C(C)C)cc1-c1nc2c3cccc(C(F)(F)F)c3nc(N[C@@H]3CCCCNC3=O)n2n1` [Example 748, (3R)-3-({2-[3-methyl-1-(propan-2-yl)-1H-pyrazol-4-yl]-7-(trifluoromethyl)[1,2,4]triazolo[1,5-c]quinazolin-5-yl}amino)azepan-2-one], the IC50 was 3.9e-10 M against AHR [1] and 0.656 nM at AHR [2] (setting [4]).
`O=C1NCCNC[C@H]1Nc1nc2c(Br)cccc2c2nc(-c3cnn(CC4CC4)c3)nn12` [Example 968, (6R)-6-({7-bromo-2-[1-(cyclopropylmethyl)-1H-pyrazol-4-yl][1,2,4]triazolo[1,5-c]quinazolin-5-yl}amino)-1,4-diazepan-5-one]: the IC50 was determined as 6.97e-09 M against AHR [1] (firefly luciferase reporter) and 7.46 nM on AHR [2] (setting [3]).
For `Cc1cccc(C)c1-c1nc2c3ccccc3nc(N[C@@H]3CCCCNC3=O)n2n1` [Example 623, (3R)-3-{[2-(2,6-dimethylphenyl)[1,2,4]triazolo[1,5-c]quinazolin-5-yl]amino}azepan-2-one], the IC50 on AHR [1] amounted to 3.37e-07 M; at AHR [2] (setting [4]), 4.65 nM.
`O=C1NCCCC[C@@H]1Nc1nc2ccccc2c2nc(-c3ccccc3OC(F)(F)F)nn12` [Example 457, (3S)-3-({2-[2-(trifluoromethoxy)phenyl][1,2,4]triazolo[1,5-c]quinazolin-5-yl}amino)azepan-2-one]: the IC50 stood at 9.89e-07 M on AHR [1] and 78.3 nM on AHR [2] (setting [4]).
As for `O=C1NCCCC[C@H]1Nc1nc2ccccc2c2nc(-c3ccccc3OC(F)(F)F)nn12` [Example 456, (3R)-3-({2-[2-(trifluoromethoxy)phenyl][1,2,4]triazolo[1,5-c]quinazolin-5-yl}amino)azepan-2-one], the IC50 turned out to be 2.98e-09 M against AHR [1] and 3.56 nM at AHR [2] (setting [4]).
The like results for `O=C1NCCCC[C@H]1Nc1nc2ccccc2c2nc(-c3ccc(Br)cc3Cl)nn12` [Example 200, (3R)-3-{[2-(4-bromo-2-chlorophenyl)[1,2,4]triazolo[1,5-c]quinazolin-5-yl]amino}azepan-2-one] were, in that order, 2.87e-09 M and over 20000 nM.
Regarding `COCCNC(=O)[C@H](Nc1nc2c(Br)cccc2c2nc(-c3cnn(C)c3)nn12)C(C)C` [Example 929, N^2-[7-bromo-2-(1-methyl-1H-pyrazol-4-yl)[1,2,4]triazolo[1,5-c]quinazolin-5-yl]-N-(2-methoxyethyl)-D-valinamide], the results for the IC50 against AHR [1] (firefly luciferase reporter) and on AHR [2] (setting [3]) were 3.93e-08 M and 10.9 nM, respectively.
In the case of `COc1ccc(-c2nc3c4c(C5CCOCC5)cccc4nc(N[C@@H]4CCCCNC4=O)n3n2)cc1` [Example 397, (3R)-3-{[2-(4-methoxyphenyl)-10-(oxan-4-yl)[1,2,4]triazolo[1,5-c]quinazolin-5-yl]amino}azepan-2-one], the IC50 against AHR [1] amounted to 1.83e-08 M; at AHR [2] (setting [4]), 37.6 nM.
Regarding `O=C1NCCCC[C@H]1Nc1nc2ccccc2c2nc(-c3ccc(F)c(Cl)c3)nn12` [Example 625, (3R)-3-{[2-(3-chloro-4-fluorophenyl)[1,2,4]triazolo[1,5-c]quinazolin-5-yl]amino}azepan-2-one], the IC50 against AHR [1] is 1.5e-09 M; on AHR [2] (read-out: AHR Antagonism Mouse IC50, mouse Hepa 1c1c7 cells, 200 μM kynurenic acid, 20 hours), over 2000 nM.

Values taken from patent publication US20230113037A1 (Bayer Aktiengesellschaft, priority 2019, published 2023).
